Test results published in US20070276025A1, “Indirubin-Type Compounds, Compositions, and Methods for Their Use” (priority 2003, published 2007).
pEC50, pIC50: −log10 of the molar value. Read-outs that look alike come from different tables or passages of the source.

How the values were obtained:
[1] = tested on: 5L (AhR +/+) hepatoma cells; test: FACS cell cycle analysis, 5L cells; type: cell-based, mouse; conditions: 10 μM indirubins or 100 nM TCDD, 24 hr
[2] = Solubility (qualitative remark); conditions: relative to parent indirubins / 3′-oximes
[3] = tested on: BP8 (AhR −/−) hepatoma cells; test: Cell viability MTT assay, BP8 cells; type: cell-based, mouse; conditions: range of concentrations, 24 and 48 hr
GSK-3 [4] = test: β-catenin phosphorylation on GSK-3 specific sites in COS-1 cells (Western blot); conditions: 5 μM indirubins or 20 mM LiCl, 24 hrs
Xenopus laevis embryos = test: Maternal Wnt pathway activation in Xenopus laevis embryos (phenotype, RT-PCR of animal caps); type: in vivo; conditions: for embryo phenotype (anteriorization): BIO 5-50 μM, MeBIO 50 μM, LiCl 0.3 M, treated before stage 8, tadpole stage
Method: Xenopus laevis embryos obtained by in vitro fertilization were cultured in 0.1×MMR and staged (Nieuwkoop & Faber (1967) Normal table of Xenopus Laevis (North Holland Publishing Co, Amsterdam, The Netherlands)). […] For experiments with BIO, the reagent was added to the indicated final concentrations at the 4 cell stage and washed away at stage 8. Embryos were subsequently allowed to develop to tadpole stage. RNA injections were performed at 2-4 cell stage with the indicated amounts of in vitro transcribed RNA in a […] volume. Animal caps were dissected at blastula (stage 9) and cultured to neurula (stage 18) for RT-PCR analysis-. The RNA expression vectors were pCS2+DN Xtcf-3, encoding amino acids 88-553 of Xtcf-3 (Vonica et al. (2000) Dev. Biol. 217: 230-243), MTPA2 (Zeng et al. […] RT-PCR was performed as previously described (Chang et al. (1997) Development 124: 827-837), with the following oligonucleotides: for ODC sense [NT] and antisense 5° [NT] 3'; for nrp1 sense [NT] and antisense [NT]; for XAG1 sense [NT] and antisense 5° [NT] 3'; for en2 sense 5° [NT] 3' and antisense [NT]; for Xhoxb9 sense [NT] and antisense [NT]; for chordin sense 5° [NT] 3' and antisense [NT]. Phenotypes of embryos treated with BIO or LiCl were compared (FIG. 8B-G). […] The Wnt pathway can ectopically induce dorsal genes, like the direct Wnt target siamois ([…] et al. (1996) Development 122: 3055-3065), and the Spemann organizer marker and siamois target chordin (Kessler (1997) Proc. Natl. Acad. Sci. U.S.A. 94: 13017-22). […] Another outcome of ectopic Wnt pathway activation in Xenopus is the indirect induction of neural tissue in animal cap explants (Baker et al. (1999) Genes Dev. 13: 3149-3159). Explants from embryos treated with LiCl (FIG. 8I, lanes 4, 5), BIO (lanes 6, 7), or injected with RNA for the neuralizing factor noggin (lane 3), were compared by RT-PCR for various neural and anterior markers.

[5] = tested on: GSK-3α (Tyr276) / GSK-3β (Tyr216); test: Tyrosine phosphorylation of GSK-3 in SH-SY5Y cells (Western blot); type: cell-based, human; conditions: 1 μM, 12 hr
Description: GSK-3α and GSK-3β activity is enhanced by the phosphorylation of a specific tyrosine residue (Tyr276 and Tyr216, respectively) (Hughes et al. (1993) EMBO J. 12: 803-808; Dajani et al. (2003) EMBO J. 22: 494-501). The tyrosine kinase responsible for this phosphorylation in mammals is unknown, but there is some evidence that it indirectly depends on GSK-3 activity (Bhat et al. (2000) Proc. Natl. Acad. Sci. U.S.A. 97: 11074-11079; Shaw et al. (1997) FEBS Lett. 416: 307-311). […] SH-SY5Y cells were exposed to IO, MeIO, BIO and MeBIO for 12 hr and the phosphorylation of Tyr276 (GSK-3α) and Tyr216 (GSK-3β) was estimated by Western blotting with phospho-specific antibodies. […] This was accompanied by an increased level in total GSK-3β, total β-catenin, and dephospho-&catenin.

GSK-3 [6] = test: β-catenin stabilization in AhR- or ARNT-deficient Hepa cell lines (Western blot); conditions: 10 μM BIO, 50 μM MeBIO, 24 hrs
[7] = tested on: p27^KIP1 in 5L (AhR +/+) cells; test: p27KIP1 expression by Western blotting, 5L cells; type: cell-based, mouse; conditions: 10 μM indirubins or 0.1 μM TCDD, 24 hr
[8] = tested on: 5L (AhR +/+) hepatoma cells; test: Cell viability MTT assay, 5L cells; type: cell-based, mouse; conditions: range of concentrations, 24 and 48 hr
AhR [9] = test: AhR nuclear translocation in Hepa-1 and ARNT mutant cells (immunofluorescence); type: cell-based, mouse; conditions: 25 μM, 90 min, Hepa-1 wild-type and ARNT mutant cells
CDK5/p25 = CDK5/p25 (Homo sapiens, UniProt Q00535); test: CDK5/p25 kinase assay (histone H1, 15 μM ATP); type: biochemical, mammalian; conditions: read-out: IC50 CDK5/p25
Sequence of CDK5/p25 (Q00535 whole entry, species assumed): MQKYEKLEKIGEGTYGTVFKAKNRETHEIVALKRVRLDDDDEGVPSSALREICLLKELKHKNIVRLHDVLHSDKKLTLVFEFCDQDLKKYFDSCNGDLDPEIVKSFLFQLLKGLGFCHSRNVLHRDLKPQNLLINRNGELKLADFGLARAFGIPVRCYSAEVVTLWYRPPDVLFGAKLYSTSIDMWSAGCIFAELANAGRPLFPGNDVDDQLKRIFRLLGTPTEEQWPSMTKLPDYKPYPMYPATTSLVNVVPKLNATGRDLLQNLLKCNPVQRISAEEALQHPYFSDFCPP
Sequence of CDK5/p25 (Q15078 99-307 partner limits assumed, species assumed): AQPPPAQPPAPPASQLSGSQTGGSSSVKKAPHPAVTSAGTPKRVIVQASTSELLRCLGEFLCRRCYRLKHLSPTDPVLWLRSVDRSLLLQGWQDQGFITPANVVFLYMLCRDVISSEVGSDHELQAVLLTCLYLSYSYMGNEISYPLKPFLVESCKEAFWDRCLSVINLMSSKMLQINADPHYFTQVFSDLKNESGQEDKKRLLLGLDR

GSK-3α/β = GSK-3α/β kinase assay (GS-1 peptide, 15 μM ATP); type: biochemical, porcine
CDK1/cyclin B = CDK1/cyclin B kinase assay (histone H1, 15 μM ATP); type: biochemical, starfish (Marthasterias glacialis)
AhR [10] = biological target: T1, AhR (Homo sapiens, UniProt P35869)
T1 sequence (P35869 11-848): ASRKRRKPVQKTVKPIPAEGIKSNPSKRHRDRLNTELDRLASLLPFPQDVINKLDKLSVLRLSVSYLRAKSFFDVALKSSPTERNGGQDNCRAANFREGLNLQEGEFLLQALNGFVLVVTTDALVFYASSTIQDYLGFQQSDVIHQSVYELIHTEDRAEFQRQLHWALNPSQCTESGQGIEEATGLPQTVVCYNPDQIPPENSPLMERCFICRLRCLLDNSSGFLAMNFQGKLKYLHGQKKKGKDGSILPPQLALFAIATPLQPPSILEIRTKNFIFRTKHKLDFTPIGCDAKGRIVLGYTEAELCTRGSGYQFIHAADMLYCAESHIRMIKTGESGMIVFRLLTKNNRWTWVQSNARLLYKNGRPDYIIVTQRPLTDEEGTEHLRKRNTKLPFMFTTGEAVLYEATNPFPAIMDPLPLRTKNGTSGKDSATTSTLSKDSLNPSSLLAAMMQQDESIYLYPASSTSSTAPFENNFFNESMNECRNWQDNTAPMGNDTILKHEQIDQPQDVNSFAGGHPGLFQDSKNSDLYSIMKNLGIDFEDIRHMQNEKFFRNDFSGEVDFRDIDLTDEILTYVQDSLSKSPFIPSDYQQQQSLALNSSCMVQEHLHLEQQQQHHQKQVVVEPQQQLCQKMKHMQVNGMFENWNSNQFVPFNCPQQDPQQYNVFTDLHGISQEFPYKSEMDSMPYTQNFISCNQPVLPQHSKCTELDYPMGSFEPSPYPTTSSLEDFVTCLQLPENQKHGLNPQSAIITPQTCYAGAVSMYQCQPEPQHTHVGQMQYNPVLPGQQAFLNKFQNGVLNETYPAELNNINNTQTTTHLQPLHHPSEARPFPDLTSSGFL
T1 sequence (P27540 whole entry partner): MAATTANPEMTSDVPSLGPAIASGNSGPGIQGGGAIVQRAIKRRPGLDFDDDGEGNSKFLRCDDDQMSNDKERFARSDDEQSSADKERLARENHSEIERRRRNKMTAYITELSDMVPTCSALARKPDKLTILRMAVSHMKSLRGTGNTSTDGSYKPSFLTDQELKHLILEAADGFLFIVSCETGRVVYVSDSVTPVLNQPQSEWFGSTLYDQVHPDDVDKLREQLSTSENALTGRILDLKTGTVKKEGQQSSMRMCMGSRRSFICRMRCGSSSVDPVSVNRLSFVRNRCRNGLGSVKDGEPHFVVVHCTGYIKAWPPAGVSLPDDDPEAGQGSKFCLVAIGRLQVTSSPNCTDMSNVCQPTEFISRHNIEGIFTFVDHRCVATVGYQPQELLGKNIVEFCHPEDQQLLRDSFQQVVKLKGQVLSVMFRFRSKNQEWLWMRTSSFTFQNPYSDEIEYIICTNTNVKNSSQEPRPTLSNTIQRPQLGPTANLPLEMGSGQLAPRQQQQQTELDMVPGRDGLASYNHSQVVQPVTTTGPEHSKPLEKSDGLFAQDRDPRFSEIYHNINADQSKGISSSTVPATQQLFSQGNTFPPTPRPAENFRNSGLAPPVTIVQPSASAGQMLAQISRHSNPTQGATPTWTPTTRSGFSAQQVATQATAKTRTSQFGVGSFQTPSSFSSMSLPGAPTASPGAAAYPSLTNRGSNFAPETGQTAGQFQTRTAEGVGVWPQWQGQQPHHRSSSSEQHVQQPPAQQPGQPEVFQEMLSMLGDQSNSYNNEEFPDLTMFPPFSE

AhR [11] = biological target: T2, AhR (Mus musculus, UniProt P30561); conditions: read-out: EC50 AhR (hepatoma cell line); Table 4; EGFP at 24 hours
T2 sequence (P30561 1-848): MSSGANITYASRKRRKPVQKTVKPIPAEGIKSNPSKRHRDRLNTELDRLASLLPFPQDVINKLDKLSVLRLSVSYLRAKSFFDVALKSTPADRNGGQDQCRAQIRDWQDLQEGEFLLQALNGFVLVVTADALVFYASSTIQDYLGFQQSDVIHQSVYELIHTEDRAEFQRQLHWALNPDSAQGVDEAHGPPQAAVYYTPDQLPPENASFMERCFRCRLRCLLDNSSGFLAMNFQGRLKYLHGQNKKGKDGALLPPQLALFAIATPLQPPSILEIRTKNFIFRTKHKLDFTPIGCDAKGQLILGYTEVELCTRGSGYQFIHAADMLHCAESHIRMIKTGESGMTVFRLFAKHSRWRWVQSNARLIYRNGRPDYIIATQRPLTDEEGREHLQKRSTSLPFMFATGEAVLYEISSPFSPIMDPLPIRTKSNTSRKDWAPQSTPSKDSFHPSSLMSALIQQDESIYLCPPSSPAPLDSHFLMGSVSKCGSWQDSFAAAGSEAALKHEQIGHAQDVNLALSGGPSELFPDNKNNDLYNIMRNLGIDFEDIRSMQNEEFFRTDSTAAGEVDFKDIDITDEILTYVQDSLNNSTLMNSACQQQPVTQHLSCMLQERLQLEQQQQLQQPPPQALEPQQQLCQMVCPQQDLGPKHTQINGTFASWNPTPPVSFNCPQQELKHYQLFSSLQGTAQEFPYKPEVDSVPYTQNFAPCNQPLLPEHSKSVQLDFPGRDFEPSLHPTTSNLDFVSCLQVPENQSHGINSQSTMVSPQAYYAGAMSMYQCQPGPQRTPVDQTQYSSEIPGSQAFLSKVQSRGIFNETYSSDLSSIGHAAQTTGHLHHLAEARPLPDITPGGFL

[12] = tested on: BP8 (AhR −/−) hepatoma cells; test: FACS cell cycle analysis, BP8 cells; type: cell-based, mouse; conditions: 10 μM indirubins or 100 nM TCDD, 24 hr
Method: Flow cytometry analysis (Coulter EPIX XL2, Beckman, Calif., USA) of cellular DNA content was performed on ethanol-fixed cell suspensions after ribonuclease A III treatment (Sigma) and propidium iodide (Sigma) staining, as previously described (French et al. (1985) Cytometry 6: 47-53). Percentages of cells in G0/G1, S and G2/M phases of cell cycle were then calculated on the basis of DNA distribution histograms provided by the software manufacturer.
Both 5L and BP8 cell lines were treated with 10 μM IO, MeIO, BIO, MeBIO or 100 nM TCDD for 24 hr.

CDK5/p35 = CDK5/p35 (Homo sapiens, UniProt Q00535); parameters: made in house; conditions: Hoessel et al. (1999); cited from earlier work
Sequence of CDK5/p35 (Q00535 whole entry, species assumed): as the sequence (Q00535 whole entry, species assumed) above
Sequence of CDK5/p35 (Q15078 whole entry partner, species assumed): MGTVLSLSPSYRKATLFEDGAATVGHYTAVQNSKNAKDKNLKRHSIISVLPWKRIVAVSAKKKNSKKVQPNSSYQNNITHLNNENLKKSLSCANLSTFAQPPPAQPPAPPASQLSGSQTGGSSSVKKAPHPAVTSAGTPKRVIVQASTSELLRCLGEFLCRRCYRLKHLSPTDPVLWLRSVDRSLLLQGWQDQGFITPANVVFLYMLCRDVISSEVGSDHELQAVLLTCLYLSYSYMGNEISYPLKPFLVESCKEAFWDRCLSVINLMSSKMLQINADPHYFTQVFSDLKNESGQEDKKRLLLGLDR

AhR [13] = biological target: T1, AhR; test: Yeast AhR reporter assay (β-galactosidase)
[14] = Table 1, read-out: IC50 GSK-3 α/β
[15] = Table 5, read-out: IC50 GSK-3α/β
[16] = Table 7, GSK-3, read-out: IC50exp
[17] = Table 5, read-out: IC50 CDK1/cyclin B
[18] = Table 4, read-out: IC50 CDK1/cycin B

O=C1Nc2cc(Br)ccc2/C1=C1/Nc2ccccc2/C1=N\O [7a]
accumulation of 5L cells in G1 phase [1]: modest (but detectable) | solubility (in words) [2]: increased solubility | survival of BP8 cells (MTT) [3]: equally sensitive to IO and BIO | unphosphorylated β-catenin level (GSK-3 [4]): major increase | embryo phenotype (anteriorization) (Xenopus laevis embryos): phenocopies the LiCl effect in a dose-dependent manner | induction of siamois and chordin in animal cap explants (RT-PCR) (Xenopus laevis embryos; Li+ 0.3 M, BIO 50 μM): shows induction of both genes | effect on anterior markers otx2 and xag1 in animal cap explants (RT-PCR) (Xenopus laevis embryos; even at the lowest concentration tested (5 μM)): strongest effect on anterior markers | level of tyrosine phosphorylation of both GSK-3 isoforms [5]: dramatically reduced | β-catenin stabilization (GSK-3 [6]): triggered a robust β-catenin stabilization in both cell lines | p27^KIP1 expression in 5L cells [7]: modest, but detectable increase | survival of 5L cells (MTT) [8]: equally sensitive to IO and BIO | nuclear translocation of AhR (AhR [9]): triggered ARNT-independent nuclear redistribution of AhR

O=C1Nc2cc(Br)ccc2C1=C1Nc2cc(Br)ccc2C1=NO [13b, 6,6′-dibromo-indirubin-3′-oxime]
solubility (in words) [2]: increased solubility | pIC50 (CDK5/p25; Table 1): 5.89 | pIC50 (CDK5/p25; Table 5): 5.89 | pIC50 (GSK-3α/β; [14]): 6.92 | pIC50 (GSK-3α/β; [15]): 6.92 | pIC50 (GSK-3α/β; [16]): 6.92 | pIC50 (CDK1/cyclin B; Table 1, read-out: IC50 CDK1/cyclin B): 4.77 | pIC50 (CDK1/cyclin B; [17]): 4.77

CN1C(=O)C(=C2Nc3ccccc3C2=NO)c2ccc(Br)cc21 [13c, 6-Bromo-1-methylindirubin-3′-oxime]
accumulation of 5L cells in G1 phase [1]: very striking accumulation | survival of BP8 cells (MTT) [3]: apparently not affected | unphosphorylated β-catenin level (GSK-3 [4]): neither the kinase-inactive MeBIO nor IO, led to a major increase | pEC50 (AhR [10]): 7.70 | embryo phenotype (anteriorization) (Xenopus laevis embryos): remains without effect | pEC50 (AhR [11]): 7.03 | level of tyrosine phosphorylation of both GSK-3 isoforms [5]: None of these changes were observed | pIC50 (CDK5/p25; Table 1): < 4.00 | pIC50 (CDK5/p25; Table 5): < 4.00 | pIC50 (GSK-3α/β; [14]): 4.36 | pIC50 (GSK-3α/β; Table 4, read-out: IC50 GSK-3): 4.36 | pIC50 (GSK-3α/β; [15]): < 4.00 | accumulation of BP8 cells in G1 phase [12]: but not of AhR −/− cells (BP8) | β-catenin stabilization (GSK-3 [6]): inactive | p27^KIP1 expression in 5L cells [7]: very effective p27^KIP1 inducers | survival of 5L cells (MTT) [8]: apparently not affected | nuclear translocation of AhR (AhR [9]): caused redistribution of AhR to the nucleus | pIC50 (CDK1/cyclin B; [18]): 4.04 | pIC50 (CDK1/cyclin B; [17]): 4.04

O=C1Nc2ccc(S(=O)(=O)O)cc2/C1=C1/Nc2ccccc2C1=O [I5S, indirubin-5-sulphonate]
pIC50 (CDK5/p35): 7.22

O=C1Nc2ccc(I)cc2/C1=C1/Nc2ccccc2/C1=N\O [compound 19, 5-iodo-indirubin-3′-oxime, reference compound]
pEC50 (AhR [10]): 7.30 | pEC50 (AhR [11]): 8.30 | nuclear translocation of AhR (AhR [9]): triggered ARNT-independent nuclear redistribution of AhR | pIC50 (CDK1/cyclin B; [18]): 7.60

O=C1Nc2ccccc2/C1=C1/Nc2ccc(Br)cc2C1=O [compound 20, 5′-bromo-indirubin, reference compound]
pEC50 (AhR [10]): ≤ 7.00 | pEC50 (AhR [11]): 7.29 | pIC50 (GSK-3α/β; Table 4, read-out: IC50 GSK-3): 6.46 | pIC50 (GSK-3α/β; [16]): 6.46 | pIC50 (CDK1/cyclin B; [18]): 6.29

O=C1Nc2ccc(Br)cc2/C1=C1/Nc2ccc(Br)cc2C1=O [compound 21, 5,5′-dibromo-indirubin, reference compound]
pEC50 (AhR [10]): < 6.70 | pEC50 (AhR [11]): 7.33 | pIC50 (GSK-3α/β; Table 4, read-out: IC50 GSK-3): 6.60 | pIC50 (GSK-3α/β; [16]): 6.60 | pIC50 (CDK1/cyclin B; [18]): 3.22

Clc1cc2c(cc1Cl)Oc1cc(Cl)c(Cl)cc1O2 [compound 25, 2,3,7,8-tetrachlorodibenzo-p-dioxin, reference compound]
accumulation of 5L cells in G1 phase [1]: triggered an AhR-dependent arrest in G1 | pEC50 (AhR [11]): 10.82 | pEC50 (AhR [13]): 7.60 | pIC50 (GSK-3α/β; Table 4, read-out: IC50 GSK-3): < 4.82 | p27^KIP1 expression in 5L cells [7]: up-regulates the expression of both CYP1A1 and p27^KIP1 in the 5L | pIC50 (CDK1/cyclin B; [18]): < 4.82
